Measured values reported in the NIST ThermoML archive (doi:10.1016/j.jct.2006.10.009).
Numbers after ± are expanded uncertainties.

assay: not given; conditions: Crystal; DTA

For `CCCCCCCCCC[N+](C)(C)CCCCCCCCCC.O=[N+]([O-])[O-]` [Didecyldimethylammonium nitrate], the Normal melting temperature was 31.7 ± 4 °C.

same assay, conditions: Crystal; visual observation

Going from `CCCCCCCCO` [octan-1-ol] to `CCCCCCCCCCO` [decan-1-ol], the Normal melting temperature rises from -14.9 ± 4 °C to 5.1 ± 4 °C.

Compared with `CCCO` [propan-1-ol], `CCCCO` [butan-1-ol] is higher in Normal melting temperature: -126.4 ± 4 °C for the first, -89.4 ± 4 °C for the second.

First: CCCCCCCCCCCCCCCC [hexadecane]
Second: CCCCCC [hexane]
The Normal melting temperature of the first is higher: 18.0 ± 4 °C for the first, -94.3 ± 4 °C for the second.

`Cc1ccccc1` [toluene] and `CCCc1ccccc1` [propylbenzene] are within error of each other in Normal melting temperature: -95.0 ± 4 °C for the first, -99.0 ± 4 °C for the second.

assay: Molar enthalpy of transition or fusion; conditions: Crystal; DSC

With `CCCCCCCCCC[N+](C)(C)CCCCCCCCCC.O=[N+]([O-])[O-]` [Didecyldimethylammonium nitrate] the “Molar enthalpy of transition or fusion” value was 2.36 ± 0.086 kcal/mol.
